Results as given in paper PMC8379669 (Computational and Structural Biotechnology Journal, 2021).

What was measured:
[1] = target: AChE from Electrophorus electricus (electric eel) (Electrophorus electricus, UniProt O42275); experiment: In vitro AChE inhibition assay; type: biochemical
BChE from equine serum = BChE from equine serum (Equus caballus, UniProt P81908); experiment: biochemical; type: biochemical; conditions: for IC50 values (mean ± SD) BChE: BChE from equine serum
[2] = target: GluN2B containing NMDAR (GluN1/GluN2B) in HEK-293 cells (Homo sapiens, UniProt Q05586+Q13224); experiment: Cell-based NMDAR activity assay; conditions: for category of NMDAR inhibitor: based on NMDAR IC50; for antagonism of NMDAR activity, in words: initial screening studies; for inhibition at 100 µM / inhibition at 50 µM: HEK293, read-out: inhibition of NMDAR activity; for number of punctate cells: 5 μM, with NMDAR agonists and Ca2+ (Fig. 2B)
[3] = tested on: rat primary cortical neurons; experiment: Glutamate-induced excitotoxicity, MAP2 immunostaining and DAPI staining; type: cell-based; conditions: DIV9 neurons, 100 µM glutamate and 10 µM glycine
HepG2 cells = experiment: MTT cytotoxicity assay on HepG2 cells; conditions: 24 h; for cytotoxicity on HepG2 cells, in words: 10-300 μM
rat liver = experiment: In vivo hepatotoxicity assessment by liver histopathology; conditions: IP, 15 days; for liver histopathology (H&E), in words: 201 3 mg/Kg, 208 1 mg/Kg, tacrine 5 mg/Kg
[4] = tested on: rat primary cortical neurons; experiment: Glutamate-induced excitotoxicity, MTT assay; type: cell-based; conditions: DIV9 neurons, glutamate 3 h, MTT after 24 h; pre-treatment with compounds
[5] = tested on: MSG induced cognitive impairment in rats; experiment: Morris water maze test in MSG treated rats; type: in vivo; conditions: rat, IP, 3 mg/Kg body weight with MSG 4 g/Kg; vs MSG alone
AChE = conditions: read-out: IC50 (AChEI); cited from earlier work
NMDAR = conditions: read-out: IC50 NMDAR, reported value; cited from earlier work

GluN2B containing NMDAR (GluN1/GluN2B) in HEK-293 cells, sequence (Q13224 27-1484, species assumed, other chains not shown): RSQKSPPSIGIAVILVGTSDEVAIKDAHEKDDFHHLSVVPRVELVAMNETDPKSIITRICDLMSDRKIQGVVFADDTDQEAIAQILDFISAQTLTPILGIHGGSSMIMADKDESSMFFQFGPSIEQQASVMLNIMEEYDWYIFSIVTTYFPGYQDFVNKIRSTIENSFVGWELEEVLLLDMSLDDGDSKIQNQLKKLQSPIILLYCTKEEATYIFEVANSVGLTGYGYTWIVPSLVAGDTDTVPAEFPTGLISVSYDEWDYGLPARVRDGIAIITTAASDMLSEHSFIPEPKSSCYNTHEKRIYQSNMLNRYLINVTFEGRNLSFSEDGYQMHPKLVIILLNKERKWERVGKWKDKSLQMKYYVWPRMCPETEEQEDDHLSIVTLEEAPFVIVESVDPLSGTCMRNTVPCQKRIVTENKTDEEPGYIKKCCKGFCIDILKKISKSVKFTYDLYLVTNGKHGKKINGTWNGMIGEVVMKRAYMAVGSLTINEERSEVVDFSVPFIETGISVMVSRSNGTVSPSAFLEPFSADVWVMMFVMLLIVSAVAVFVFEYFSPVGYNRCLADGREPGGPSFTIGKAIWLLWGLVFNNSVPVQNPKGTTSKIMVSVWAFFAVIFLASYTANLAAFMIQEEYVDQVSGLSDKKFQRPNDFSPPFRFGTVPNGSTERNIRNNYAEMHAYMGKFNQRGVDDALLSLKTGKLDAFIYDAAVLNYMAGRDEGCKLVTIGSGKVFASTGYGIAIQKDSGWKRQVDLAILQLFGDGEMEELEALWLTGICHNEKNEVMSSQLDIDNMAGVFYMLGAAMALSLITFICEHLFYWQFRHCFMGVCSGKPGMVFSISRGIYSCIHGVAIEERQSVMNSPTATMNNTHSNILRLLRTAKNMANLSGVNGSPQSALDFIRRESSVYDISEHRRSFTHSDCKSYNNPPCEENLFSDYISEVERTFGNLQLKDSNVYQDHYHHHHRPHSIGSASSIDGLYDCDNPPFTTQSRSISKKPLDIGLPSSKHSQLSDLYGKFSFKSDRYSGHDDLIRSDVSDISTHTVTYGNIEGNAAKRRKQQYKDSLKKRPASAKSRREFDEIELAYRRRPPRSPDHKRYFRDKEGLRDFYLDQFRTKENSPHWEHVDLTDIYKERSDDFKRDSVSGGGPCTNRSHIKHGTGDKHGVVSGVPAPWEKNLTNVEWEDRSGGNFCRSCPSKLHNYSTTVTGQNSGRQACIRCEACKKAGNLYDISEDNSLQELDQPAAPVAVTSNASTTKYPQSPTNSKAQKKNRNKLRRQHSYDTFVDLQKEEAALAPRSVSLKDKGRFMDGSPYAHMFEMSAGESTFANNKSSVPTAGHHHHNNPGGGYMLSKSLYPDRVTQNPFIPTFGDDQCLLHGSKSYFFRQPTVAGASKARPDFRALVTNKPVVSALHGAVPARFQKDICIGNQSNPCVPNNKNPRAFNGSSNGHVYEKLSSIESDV
BChE from equine serum, sequence (P81908 whole entry): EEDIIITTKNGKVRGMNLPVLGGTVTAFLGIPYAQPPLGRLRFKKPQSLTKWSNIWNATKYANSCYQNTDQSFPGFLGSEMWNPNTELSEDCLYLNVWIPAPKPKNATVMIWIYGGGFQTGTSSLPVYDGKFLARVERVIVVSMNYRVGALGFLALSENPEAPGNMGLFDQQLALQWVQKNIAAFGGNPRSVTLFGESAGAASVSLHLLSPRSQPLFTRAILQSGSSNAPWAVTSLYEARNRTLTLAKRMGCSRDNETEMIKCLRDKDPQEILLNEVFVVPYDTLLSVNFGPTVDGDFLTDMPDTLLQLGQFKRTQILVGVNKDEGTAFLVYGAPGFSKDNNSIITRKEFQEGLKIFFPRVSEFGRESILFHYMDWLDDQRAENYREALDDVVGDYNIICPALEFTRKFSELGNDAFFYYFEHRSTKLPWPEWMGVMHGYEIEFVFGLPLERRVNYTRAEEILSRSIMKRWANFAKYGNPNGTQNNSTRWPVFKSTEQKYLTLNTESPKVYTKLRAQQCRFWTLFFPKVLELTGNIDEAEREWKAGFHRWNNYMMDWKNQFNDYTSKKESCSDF
AChE from Electrophorus electricus (electric eel), sequence (O42275 24-633): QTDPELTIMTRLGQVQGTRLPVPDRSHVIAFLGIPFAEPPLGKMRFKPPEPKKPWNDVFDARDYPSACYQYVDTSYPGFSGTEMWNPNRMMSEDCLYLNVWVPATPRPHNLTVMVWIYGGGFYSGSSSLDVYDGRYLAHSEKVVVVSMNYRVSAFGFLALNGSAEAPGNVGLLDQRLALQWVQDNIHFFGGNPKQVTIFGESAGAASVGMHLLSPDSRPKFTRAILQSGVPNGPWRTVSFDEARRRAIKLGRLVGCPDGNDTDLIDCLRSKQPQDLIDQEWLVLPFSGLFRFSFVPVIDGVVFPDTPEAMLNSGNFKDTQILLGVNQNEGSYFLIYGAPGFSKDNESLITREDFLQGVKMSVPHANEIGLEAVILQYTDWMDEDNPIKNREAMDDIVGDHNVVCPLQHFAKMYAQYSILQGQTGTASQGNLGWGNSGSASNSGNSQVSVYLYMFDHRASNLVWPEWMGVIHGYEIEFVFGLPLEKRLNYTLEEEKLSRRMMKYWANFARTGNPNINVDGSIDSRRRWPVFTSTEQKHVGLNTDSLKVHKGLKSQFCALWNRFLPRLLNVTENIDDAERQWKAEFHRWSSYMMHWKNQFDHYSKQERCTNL

Compound	IC50 [1] [nM]	IC50 (BChE from equine serum) [nM]	IC50 [2] [nM]	cytotoxicity on HepG2 cells, in words (HepG2 cells)	antagonism of NMDAR activity, in words [2]	inhibition at 100 µM [2] [%]	IC50 values (mean ± SD) BChE (BChE from equine serum)	other results
CCOC(=O)C1CCc2nc3cc(Br)ccc3c(N)c2C1 (stereo not shown) [Compound 5, Ethyl 9-amino-6-bromo-1,2,3,4-tetrahydroacridine-2-carboxylate]	100 ± 7.2	7380 ± 210	–	–	–	–	–	–
NNC(=O)C1CCc2nc3cc(Br)ccc3c(N)c2C1 (stereo not shown) [Compound 8, 9-Amino-6-bromo-1,2,3,4-tetrahydroacridine-2-carbohydrazide]	138 ± 16.1	20400 ± 2110	–	–	–	–	–	–
CCOC(=O)C1CCc2nc3cc(-c4cnn(C)c4)ccc3c(N)c2C1 (stereo not shown) [Compound 10, Ethyl-9-amino-6-(1-methyl-1H-pyrazol-4-yl)-1,2,3,4-tetrahydroacridine-2-carboxylate]	107 ± 8.7	4390 ± 280	31100 ± 4800	–	–	–	–	–
CNC(=O)C1CCc2nc3cc(-c4cnn(C)c4)ccc3c(N)c2C1 (stereo not shown) [Compound 14, 9-amino-N-methyl-6-(1-methyl-1H-pyrazol-4-yl)-1,2,3,4-tetrahydroacridine-2-carboxamide]	132 ± 7.7	16400 ± 540	33900 ± 8410	non-toxic	–	–	–	condensed nuclei / viable cells (DAPI staining) after glutamate [3]: clear decrease in the number of condensed nuclei; decrease in MAP2 positive cells and loss of neuronal architecture caused by glutamate [3]: prevented; category of NMDAR inhibitor [2]: reduced
CCOC(=O)C1CCc2nc3ccccc3c(N)c2C1 (stereo not shown) [Compound 16, ethyl 9-amino-1,2,3,4-tetrahydroacridine-2-carboxylate]	42.2 ± 2.7	3820 ± 250	–	–	could not effectively block NMDAR activity	–	–	–
NNC(=O)C1CCc2nc3ccccc3c(N)c2C1 (stereo not shown) [Compound 17, 9-amino-1,2,3,4-tetrahydroacridine-2-carbohydrazide]	19.3 ± 0.47	–	–	–	could not effectively block NMDAR activity	–	–	–
CCOC(=O)C1CCc2nc3cc(-c4ccc(F)cc4)ccc3c(N)c2C1 (stereo not shown) [Compound 107, ethyl 9-amino-6-(4-fluorophenyl)-1,2,3,4-tetrahydroacridine-2-carboxylate]	135 ± 10.3	1350 ± 90	15800 ± 3440	–	–	–	–	–
Cn1cc(-c2ccc3c(N)c4c(nc3c2)CCCC4)cn1 [Compound 201, 6-(1-methyl-1H-pyrazol-4-yl)-1,2,3,4-tetrahydroacridin-9-amine]	40.9 ± 4.82	850 ± 10	15200 ± 6140	non-toxic	effective in antagonizing NMDAR activity	~100	submicromolar	liver histopathology (H&E), in words (rat liver): did not show any change in the liver architecture; condensed nuclei / viable cells (DAPI staining) after glutamate [3]: clear decrease in the number of condensed nuclei; decrease in MAP2 positive cells and loss of neuronal architecture caused by glutamate [3]: prevented; category of NMDAR inhibitor [2]: moderate (moderate (IC50 < 20 μM)); reduction in neuronal viability by glutamate (MTT assay) [4]: averted; escape latency in MWM, 5 days [5]: significantly reduced the escape latency
Nc1c2c(nc3cc(-c4cncnc4)ccc13)CCCC2 [Compound 203, 6-(pyrimidin-5-yl)-1,2,3,4-tetrahydroacridin-9-amine]	18.5 ± 2.09	1500 ± 200	28100 ± 5100	slight toxicity	effective in antagonizing NMDAR activity	–	–	–
Nc1c2c(nc3cc(-c4cc[nH]n4)ccc13)CCCC2 [Compound 204, 6-(1H-pyrazol-3-yl)-1,2,3,4-tetrahydroacridin-9-amine]	137 ± 7.35	960 ± 70	14600 ± 4320	non-toxic	effective in antagonizing NMDAR activity	~100	submicromolar	–
N#Cc1ccc(-c2ccc3c(N)c4c(nc3c2)CCCC4)cc1 [Compound 205, 4-(9-amino-5,6,7,8-tetrahydroacridin-3-yl)benzonitrile]	84.2 ± 1.8	700 ± 80	2840 ± 460	slight toxicity	effective in antagonizing NMDAR activity	~100	submicromolar	–
Nc1c2c(nc3cc(-c4ccc(OC(F)(F)F)cc4)ccc13)CCCC2 [Compound 206, 6-(4-(trifluoromethoxy)phenyl)-1,2,3,4-tetrahydroacridin-9-amine]	184 ± 19.2	1210 ± 160	9190 ± 2680	–	effective in antagonizing NMDAR activity	~100	–	–
Nc1c2c(nc3cc(-c4ccccc4F)ccc13)CCCC2 [Compound 208, 6-(2-fluorophenyl)-1,2,3,4-tetrahydroacridin-9-amine]	75.1 ± 9.46	130 ± 20	310 ± 90	–	effective in antagonizing NMDAR activity	~100	submicromolar	animals showing mild periportal inflammation or congestion (rat liver): 5 out of 6 animals; liver histopathology (H&E), in words (rat liver): mild periportal inflammation or mild congestion; condensed nuclei / viable cells (DAPI staining) after glutamate [3]: clear decrease in the number of condensed nuclei; decrease in MAP2 positive cells and loss of neuronal architecture caused by glutamate [3]: prevented; fold higher NMDAR inhibitory potency compared to reported value for tacrine [2]: ~600 fold; number of punctate cells [2]: Reduction in the number of punctate cells; inhibition at 50 µM [2]: ~100%; category of NMDAR inhibitor [2]: potent (potent (IC50 < 5 μM)); reduction in neuronal viability by glutamate (MTT assay) [4]: averted; selectivity between AChE and BChE, in words ([1]; AChE from electric eel vs BChE from equine serum): comparable inhibitory potency towards both AChE and BChE
Nc1c2c(nc3cc(-c4ccc(F)cc4)ccc13)CCCC2 [Compound 209, 6-(4-fluorophenyl)-1,2,3,4-tetrahydroacridin-9-amine]	76 ± 3.79	1030 ± 170	3360 ± 860	non-toxic	effective in antagonizing NMDAR activity	~100	–	fold increase in NMDAR potency compared to 107 [2]: About 4 fold; inhibition at 50 µM [2]: ~100%
CSc1ccc(-c2ccc3c(N)c4c(nc3c2)CCCC4)cc1 [Compound 210, 6-(4-(methylthio)phenyl)-1,2,3,4-tetrahydroacridin-9-amine]	149 ± 16.8	940 ± 120	270 ± 50	–	effective in antagonizing NMDAR activity	~100	submicromolar	condensed nuclei / viable cells (DAPI staining) after glutamate [3]: clear decrease in the number of condensed nuclei; decrease in MAP2 positive cells and loss of neuronal architecture caused by glutamate [3]: prevented; fold higher NMDAR inhibitory potency compared to reported value for tacrine [2]: ~600 fold; inhibition at 50 µM [2]: ~100%; category of NMDAR inhibitor [2]: potent (potent (IC50 < 5 μM)); reduction in neuronal viability by glutamate (MTT assay) [4]: averted
Nc1c2c(nc3cc(-c4ccc(C(F)(F)F)cc4)ccc13)CCCC2 [Compound 211, 6-(4-(trifluoromethyl)phenyl)-1,2,3,4-tetrahydroacridin-9-amine]	74.6 ± 8.29	3970 ± 710	490 ± 140	slight toxicity	effective in antagonizing NMDAR activity	~100	–	condensed nuclei / viable cells (DAPI staining) after glutamate [3]: clear decrease in the number of condensed nuclei; decrease in MAP2 positive cells and loss of neuronal architecture caused by glutamate [3]: prevented; number of punctate cells [2]: Reduction in the number of punctate cells; inhibition at 50 µM [2]: ~100%; category of NMDAR inhibitor [2]: potent (potent (IC50 < 5 μM))
Nc1c2c(nc3cc(-c4ccoc4)ccc13)CCCC2 [Compound 212, 6-(furan-3-yl)-1,2,3,4-tetrahydroacridin-9-amine]	53.6 ± 4.39	990 ± 50	16400 ± 2760	non-toxic	effective in antagonizing NMDAR activity	–	submicromolar	–
Nc1c2c(nc3cc(-c4cccnc4)ccc13)CCCC2 [Compound 214, 6-(pyridin-3-yl)-1,2,3,4-tetrahydroacridin-9-amine]	49.4 ± 2.37	820 ± 90	38800 ± 9640	non-toxic	effective in antagonizing NMDAR activity	–	submicromolar	–
C[C@]12N[C@H](Cc3ccccc31)c1ccccc12 [MK-801, reference compound]	–	–	–	–	–	–	–	condensed nuclei / viable cells (DAPI staining) after glutamate [3]: prevented
Nc1c2c(nc3ccccc13)CCCC2 [tacrine, reference compound]	–	–	–	–	–	–	–	IC50 (NMDAR): 193000 ± 33000 nM; concentration up to which safe on HepG2 cells (HepG2 cells): up to 50 µM; reduction in cell viability (HepG2 cells; HepG2, 300 µM): ~50%
